One may read the Kd as the concentration at which binding is half-saturated.

The results in this text go back to BindingDB's records for PubMed 37191335 (Tongji University, 2023).

Assay [1] can be described thus: Inhibition of TNF-alpha (unknown origin) binding to TNFR2 assessed as dissociation constant of TNF-alpha preincubated for 15 mins by MST assay (Rvb = 30.5 nM).
Assay [2] in a line: Inhibition of TNF-alpha (unknown origin) binding to TNFR1 assessed as dissociation constant of TNF-alpha preincubated for 15 mins by MST assay (Rvb = 13.4 nM).

SMILES strings stand for the structures. Peptide text beside a SMILES is read from it.

In the case of `C[C@H](N)C(=O)N[C@@H](CS)C(=O)N[C@@H](Cc1cnc[nH]1)C(=O)N[C@@H](C)C(=O)N[C@@H](Cc1c[nH]c2ccccc12)C(=O)N[C@@H](C)C(=O)N1CCC[C@H]1C(=O)N[C@H](C(=O)N[C@@H](CCCNC(=N)N)C(=O)O)[C@@H](C)O` (H-ACHAWAPTR-OH), the figures for the Kd in assay [1] and in assay [2] were 321 nM and 996 nM, respectively.
